One block for each compound: values may come before it. Activity calls are given as the source filed them. The calls are words filed in the database; no cut-off is given here.
What was measured:
[1] = tested on: Mus musculus; assay: Antiinflammatory activity in CD-1 mouse assessed as inhibition of TPA-induced ear edema applied topically 10 mins before compound challenge measured after 4 hrs; format: functional, organism-based; conditions: CD-1, Ear
[2] = tested on: SK-LU-1; assay: Cytotoxicity against human SKLU1 cells after 48 hrs by SRB assay; format: functional, cell-based; conditions: SK-LU-1, 48 h
[3] = tested on: U-251; assay: Cytotoxicity against human U251 cells after 48 hrs by SRB assay; format: functional, cell-based; conditions: U-251, 48 h
[4] = tested on: Mus musculus; assay: Antiinflammatory activity in CD-1 mouse assessed as inhibition of TPA-induced ear edema at 0.1 to 1.0 uM applied topically 10 mins before compound challenge measured after 4 hrs; format: functional, organism-based

IC50 [1]: 0.24 µmol/ear
Structure (SMILES): C[C@]12C[C@H](c3ccoc3)OC(=O)[C@@]1(O)CC[C@@]13COC(=O)C1=CC[C@H]1O[C@]132 [TEHUANINE G]

Structure (SMILES): C[C@]12C[C@H](c3ccoc3)OC(=O)[C@@H]1[C@H](O)C[C@@]13COC(=O)C1=CC[C@H]1O[C@]132 [TEHUANINE F]
IC50 [2]: 38.9 µM
IC50 [3]: 41.9 µM

Structure (SMILES): COc1ccc2c(c1)c(CC(=O)O)c(C)n2C(=O)c1ccc(Cl)cc1
inhibition [4]: Active
